Data on 7 compounds can be found in patent US11583528B2, “FFA1 (GPR40) as a therapeutic target for neural angiogenesis diseases or disorders” (Children's Medical Center Corporation, priority 2016, dated 2023).

In assay [1] the test system is retinas. As to the kind of experiment: Oxygen consumption rate of ex vivo retinas (Seahorse XFe96). Format: cell-based, mouse. Conditions: WT retinal explants with palmitate, etomoxir 40 μM. Here is the method:
(§1) All oxygen consumption rates were measured using a Seahorse XFe96 Flux Analyzer®. Whole retinas were isolated and 1 mm punch biopsies were loaded into the 96 well plate. Retinal punches were incubated in assay media (DMEM 5030 media supplemented with 12 mM glucose, 10 mM HEPES and 26 mM NaHCO3) to measure oxygen consumption rates (OCR) and extracellular acidification rates (ECAR). Photoreceptor (661W) cells, were incubated in their assay media (DMEM 5030, 12 mM glucose, 10 mM HEPES) one hour prior to measurements. Fatty acid oxidation rates were determined by treating tissues or cells with Etomoxir (40 μM; Sigma) 40 min prior to analysis and then providing BSA (control) or BSA/Palmitate conjugate (Seahorse). Glucose oxidation rates were measured after injection of 2-deoxyglucose (2-DG, 100 mM; Sigma) or media control during data acquisition. To determine the maximal fatty acid or glucose oxidative capacity, the nonmitochondrial respiration (rate after injection of 2 μM Rotenone and 2 μM Antimycin A) was subtracted from the oxygen consumption rate after injection of 0.5 μM carbonyl cyanide-ptrifluoromethoxyphenylhydrazone (FCCP).

In assay [2] the test system is photoreceptors (661W). In words: Oxygen consumption and extracellular acidification rates of photoreceptor (661W) cells (Seahorse XFe96). Type of assay: cell-based. Here is the method:
as §1

For assay [3], the system named is Vldlr−/− mice. In words: Quantification of RAP-like retinal vascular lesions in Vldlr−/− mice. Type of assay: in vivo, mouse. Conditions: Vldlr−/− pups treated from P8 to P15, lesions quantified at P16, versus vehicle control. The text has this: (§2) All studies adhered to the NIH guide for the Care and Use of laboratory animals, the Association for Research in Vision and Ophthalmology (ARVO) Statement for the Use of Animals in Ophthalmic and Vision Research and were approved by the Institutional Animal Care and Use Committee at Boston Children's Hospital. Vldlr knockout mice (Vldlr^−/−; Jackson Lab Stock: 002529) were crossed with wild type C57Bl/6 mice to obtain heterozygous breeders for littermate controlled experiments. Vldlr^−/− mice were also crossed with Ffar1 knockout mice (Ffar1^−/−)^1 to ultimately obtain Vldlr^−/−/Ffar1^−/+ heterozygous breeders and double knockout mice (Vldlr^−/−/Ffar1^−/−). Pups weighing less than 5 grams or more than 7 grams at postnatal day (P)16 were excluded (Stahl, A., et al. Am J Pathol 177, 2715-2723 (2010)). Littermate Vldlr^−/− pups were treated from P8 to P15 with WY164363 (50 mg/kg once daily, intraperitoneal; Sigma), GW9508 (14 μM, once daily intraperitoneal; Cayman), TAK-875 (15 mg/kg twice daily, gavage; Selleckchem), medium chain triglyceride oil (MCT, 20 μL once daily gavage; Nestle) or corresponding vehicle and sacrificed at P16 to quantify retinal vascular lesions. Mice pups of both genders were used.
For quantification of outer retina vascular lesions, reminiscent of retinal angiomatous proliferation (RAP) or macular telangiectasia (MacTel), mice were euthanized with a mixture of xylazine and ketamine and eyes were enucleated and fixed in 4% paraformaldehyde for 1 h at room temperature. […] For quantification of retinal lesions 20 images of each whole-mounted retina were obtained at 10× magnification on a Zeiss AxioObserver.Z1 microscope and merged to form one image using AxioVision 4.6.3.0 software. Vascular lesion counts were analyzed using the SWIFT_MACTEL method, an adaptation of the method used to measure neovascularization (SWIFT_NV) (Stahl, A., et al. Angiogenesis 12, 297-301 (2009) in the oxygen induced retinopathy model. […]

In assay [4] the test system is pancreatic β-cell. Conditions: by reducing β-cell overload; cited from earlier work.
Assay [5] relates to Glut1. In words: Glut1 expression in photoreceptor (661W) cells. Format: cell-based. Conditions: 661W photoreceptors. Here is the method:
RNA samples from cell culture, whole retina or laser-captured neovessels and layers were treated with DNase I (Qiagen, Chatsworth, Calif.) to remove any contaminating genomic DNA. The DNase-treated RNA was then converted into cDNA using reverse transcriptase (Invitrogen). PCR primers for target genes and the control gene, cyclophilin A, were designed using Primer Bank and NCBI Primer Blast software. Quantitative analysis of gene expression was generated using an ABI Prism 7700 Sequence Detection System with the SYBR Green Master mix kit and gene expression was calculated relative to cyclophilin A using the ΔcT method.
Cone photoreceptor cells (al-Ubaidi, M. R., J Cell Biol 119, 1681-1687 (1992), and Tan, E., et al. Invest Ophthalmol Vis Sci 45, 764-768 (2004)) (661W; from Dr. Al-Ubaidi) were cultured as monolayers at 37° C., 5% CO2 in a humidified atmosphere in DMEM with FBS 10% supplemented with hydrocortisone (20 μg/500 mL, H-2270, Sigma), Progesterone (20 μg/500 mL, P-8783, Sigma), Putrescine (0.016 g/500 mL, P-7505, Sigma) and β-mercaptoethanol (20 μL/500 mL, M-6250, Sigma). […] Photoreceptors were then collected 8 hours post-treatment for Hif1α protein expression (see Western blot); while their medium was collected at 12 hours for Vegfa quantification by ELISA (as per manual, MMV00, R&D Systems). […]

Assay [6] concerns Hif1α. In words: Retinal Hif1α stabilization after in vivo treatment (Western blot). Further details: species or system mouse. How it is done: (§3) Retinal samples were obtained as described above. Retinal lysate (20 μg) from three different animals or endothelial cells lysate (10 μg) were loaded on an SDS-PAGE gel and electroblotted onto a PVDF membrane. After blocking, the membranes were incubated with antibodies against β-Actin (Sigma, A1978), Hif1α (Novus, NB100-134), and Glut1 (Novus, NB300-666 and Abcam, Ab652) overnight (1:1000 each). After washing, membranes were incubated with 1:10,000 horseradish peroxidase-conjugated anti-rabbit or anti-mouse secondary antibodies (Amersham, NA931V and NA934V) for one hour at room temperature. Densitometry was analyzed using ImageJ. Retinal Vegfa concentration was measured by ELISA (as per manual, MMV00, R&D Systems) and normalized by doing a Bradford to measure the total cell protein content of each samples.
On the technique in general: In western blotting, separated proteins are transferred to a membrane and probed.

Assay [7] deals with Hif1α. As to the kind of experiment: Hif1α protein in photoreceptor (661W) cells (Western blot). Format: cell-based. Conditions: 661W photoreceptors, 8 hours post-treatment. How it is done: as §3
Cone photoreceptor cells (al-Ubaidi, M. R., J Cell Biol 119, 1681-1687 (1992), and Tan, E., et al. Invest Ophthalmol Vis Sci 45, 764-768 (2004)) (661W; from Dr. Al-Ubaidi) were cultured as monolayers at 37° C., 5% CO2 in a humidified atmosphere in DMEM with FBS 10% supplemented with hydrocortisone (20 μg/500 mL, H-2270, Sigma), Progesterone (20 μg/500 mL, P-8783, Sigma), Putrescine (0.016 g/500 mL, P-7505, Sigma) and β-mercaptoethanol (20 μL/500 mL, M-6250, Sigma). Equal number of 661W cells (0.3×106) were plated in 6-well dishes and cultured to 80% confluence. […]

The subject of assay [8] is Glut1. In words: Retinal Glut1 expression after in vivo treatment (qRT-PCR / Western blot). The arrangement: species or system mouse. Conditions: versus control.
Text: as §2, with “Pups weighing less than 5 grams or more than 7 grams at postnatal day (P)16 were excluded (Stahl, A., et al. Am J Pathol 177, 2715-2723 (2010)).” left out, “Mice pups of both genders were used.” left out
Retinal samples were obtained as described above. […] Densitometry was analyzed using ImageJ. Retinal Vegfa concentration was measured by ELISA (as per manual, MMV00, R&D Systems) and normalized by doing a Bradford to measure the total cell protein content of each samples.

Assay [9] relates to WT and Vldlr−/− mice. In words: Retinal glucose uptake (3H-2-deoxyglucose tracer) in treated pups. Format: in vivo, mouse. Conditions: WT and Vldlr−/− retinas; GW9508 14 μM daily i.p. for 5 days (P7-P12). How it is done:
Positron emission tomography (PET) imaging studies were performed on WT, Vldlr^−/−/Ffar1^−/and Ffar1^−/− mice (P16; Focus 120 high-resolution, Siemens), followed by micro CAT imaging (MicroCAT II scanner, Siemens). Fluorine-18 fluorodeoxyglucose FDG) was administered by intraperitoneal injection (i.p.) to obtain nontoxic radioactivity levels (3.7 and 37 MBq; or 0.1 to 1.0 mCi). Actual administered activity was determined using a dose calibrator to measure activity in the syringe before and after the injection. Images were acquired 60 minutes after injection to ensure radiotracer uptake. Mice were fasted for 6 hours prior to imaging, kept in darkness and anesthetized by inhalation of isoflurane (2-4%) through a nose cone for the duration of the procedure. Animals were imaged in a head first, prone position, and placed on a heating pad to maintain appropriate body temperature. Upon completion of imaging, mice were euthanized and retinas were dissected for precise ^18F-FDG retinal activity, quantification by gamma counter, and corrected for decay. […] Retinas were collected and homogenized in a scintillation cocktail (Ecolite+, MP biomedicals) and betacounts measured using the LS6500 Multipurpose Scintillation Counter (Beckman).

The test system of assay [10] is photoreceptors (661W). As to the kind of experiment: Glucose uptake of photoreceptor (661W) cells. Type of assay: cell-based. Conditions: 661W photoreceptors. How it is done: Whole retinas and photoreceptors (661W) were incubated in assay media (DMEM 5030, 12 mM glucose, 10 mM HEPES) for 6 and 48 hours respectively. Media was collected, spun briefly (13 g) to remove cellular debris, and glucose and lactate levels measured using a Yellow Springs Instrument (YSI) 2950 were compared to control media that was not exposed to tissue or cells. To determine the conversion of glucose to lactate (the glycolytic rate), lactate production was divided by glucose uptake.

“Also recorded” adds a separate entry of the source.

Turning to `CCOC(=O)[C@@]1(CCCCCCOc2ccc(Cl)cc2)CO1` [Etomoxir], in [1], the “mitochondrial respiration (OCR) with FA oxidation inhibitor” value was “abrogated”. Besides, the “effect on the increase in respiration (OCR)” value in assay [2] (661W photoreceptors with palmitate, etomoxir 40 μM) was “abrogated”.

For the compound `Cc1cccc(Nc2cc(Cl)nc(SCC(=O)O)n2)c1C` [WY16463], the “number of RAP-like pathologic vascular lesions” value in assay [3] is “reduced”.

As to `CCCCc1ccc(NS(=O)(=O)c2ccc(F)cc2)cc1` [DC260126, N-(4-Butylphenyl)-4-fluoro-benzenesulfonamide], in assay [4], the “pancreatic β-cell dysfunction” value is “protect”.

`COc1cccc(-c2cc(=O)c3ccccc3o2)c1N` [PD98059]: the “effect on FFA1-mediated Glut1 suppression by GW9508” value in assay [5] (PD98059, 20 μM, SP600125, Ffar1 siRNA) was “prevented”.

Take `CCCCCCCN(CCc1ccc(SC(C)(C)C(=O)O)cc1)C(=O)Nc1ccc(F)cc1F` [GW9578]: the “extracellular acidification rate (ECAR), reflecting lactate production from glycolysis” value in [2] (661W photoreceptors, GW9578 100 nM, 48 hours) is on record as “without significantly affecting; also recorded: not detectably affected”. Besides, the “mitochondrial respiration by FA β-oxidation (OCR)” value in assay [2] (661W photoreceptors, palmitate, GW9578 100 nM, 48 hours) is “induced; also recorded: further increased”.

With `O=C(O)CCc1ccc(NCc2cccc(Oc3ccccc3)c2)cc1` [GW9508], the “number of RAP-like pathologic vascular lesions” value in [3] is “more than doubled”. Besides, in assay [5], the Glut1 expression entry is given as “suppression”. The “Hif1α stabilization in retina” value in [6] (Vldlr−/− retinas) and in [6] (WT retinas) was “stabilized” each time. For the same compound, the Hif1α stabilization result in assay [7] is reported as “stabilized; also recorded: stabilization”. Besides, the “Glut1 expression in retina” value in assay [8] (WT and Vldlr−/− retinas) is “reduces; also recorded: suppressed”. For the same compound, the “retinal glucose uptake (3H-2-DG tracer)” value in assay [9] is reported as “suppressed; also recorded: reduction”. Also, the glucose uptake result in assay [10] is on record as “decreased”.

`Cc1cc(OCCCS(C)(=O)=O)cc(C)c1-c1cccc(COc2ccc3c(c2)OC[C@H]3CC(=O)O)c1` [TAK-875]: the “number of RAP-like pathologic vascular lesions” value in [3] was “significantly increased and more”. For the same compound, the “Glut1 expression in retina” value in [8] (Vldlr−/− retinas only) is reported as “increased Glut1 suppression”.
